Assay results: patent publication US10882838B2, “Cannabinergic compounds and uses thereof” (Northeastern University, priority 2012, dated 2021)
Read-outs that look alike come from different tables or passages of the source.

Columns and labels:
[1] = biological target: CB1 receptor (Rattus norvegicus (Rat), UniProt P20272); assay: rCB1 competition-equilibrium binding with [3H]CP-55,940, rat brain membranes
Method: Frozen rat brains (CB1 source) are obtained from Pel-Freeze Biologicals (Rogers, Ak.) and stored at −80° C. until use. Membranes are prepared according to the method described by Dodd et al. and used in our laboratory as reported.
(§1) All the cannabinoids discussed in this invention are tested for their ability to bind to CB1 and CB2 receptors using membranes from rat brain or HEK293 cells expressing either mCB2 or hCB2, respectively via competition-equilibrium binding using [^3H]CP-55,940. Results are analyzed using nonlinear regression to determine ligand IC50 (Prism by GraphPad Software, Inc.), and Ki values are calculated from the IC50. IC50 and Ki values are determined from at least three independent experiments.

[2] = biological target: mCB2 receptor (Mus musculus (Mouse), UniProt P47936); assay: mCB2 competition-equilibrium binding with [3H]CP-55,940, membranes of HEK293 cells expressing mCB2
Method: (§2) HEK293 cells expressing hCB1 or hCB2 or mCB2 receptor are used for membrane preparations according to Abadji et al. The resulting pellet is resuspended in 10 mM Tris-chloride, pH 7.4, with 5 mM MgCl2 and 2 mM EDTA (TME), rapidly frozen in liquid nitrogen and stored at −80° C. for no longer than two months. Protein content is assayed by using the Bio-Rad protein assay according to the manufacturer's protocol.
as §1

[3] = biological target: hCB2 receptor (Homo sapiens (Human), UniProt P34972); assay: hCB2 competition-equilibrium binding with [3H]CP-55,940, membranes of HEK293 cells expressing hCB2
Method: as §2, §1

[4] = rat brain membranes, [3H]CP-55,940, read-out: rCB1 Ki
[5] = HEK293 cells expressing mCB2, [3H]CP-55,940, read-out: mCB2 Ki
[6] = HEK293 cells expressing hCB2, [3H]CP-55,940, read-out: hCB2 Ki

CCCCOC(=O)Cc1cc(O)c2c(c1)OC(C)(C)[C@@H]1CCC(=O)C[C@@H]21 [Compound 3.2, Butyl-2-((6aR,10aR)-6a,7,8,9,10,10a-hexahydro-1-hydroxy-6,6-dimethyl-9-oxo-6H-benzo[c]chromen-3-yl)acetate]
Ki [1, 4]: 1000 nM | Ki [2, 5]: 1000 nM | Ki [3, 6]: 1000 nM

CCOC(=O)C(C)(C)c1cc(OC)c(-c2cc(C)cc(C)c2)c(OC)c1 [Compound 4.3, Ethyl 2-(2,6-dimethoxy-3′,5′-dimethylbiphenyl-4-yl)-2-methylpropanoate]
Ki [1, 4]: 1000 nM | Ki [2, 5]: 1000 nM | Ki [3, 6]: 1000 nM

CC1=CC[C@@H]2[C@@H](C1)c1c(O)cc([C@H](C)C(=O)O)cc1OC2(C)C [Compound 1.15, (S)-2-((6aR,10aR)-1-hydroxy-6,6,9-trimethyl-6a,7,10,10a-tetrahydro-6H-benzo[c]chromen-3-yl)propanoic Acid]
Ki [1, 4]: > 10000 nM | Ki [2, 5]: > 10000 nM | Ki [3, 6]: > 10000 nM

CC1=CC[C@@H]2[C@@H](C1)c1c(O)cc(CC(=O)O)cc1OC2(C)C [Compound 1.26, 2-((6aR,10aR)-6a,7,10,10a-tetrahydro-1-hydroxy-6,6,9-trimethyl-6H-benzo[c]chromen-3-yl)acetic Acid]
Ki [1, 4]: > 10000 nM | Ki [2, 5]: > 10000 nM | Ki [3, 6]: > 10000 nM

CC(C)(C(=O)O)c1cc(O)c2c(c1)OC(C)(C)[C@@H]1CC[C@@H](O)C[C@@H]21 [Compound 3.5, 2-((6aR,9R,10aR)-6a,7,8,9,10,10a-hexahydro-1,9-dihydroxy-6,6-dimethyl-6H-benzo[c]chromen-3-yl)-2-methylpropanoic Acid]
Ki [1, 4]: > 10000 nM | Ki [2, 5]: > 10000 nM | Ki [3, 6]: > 10000 nM

CC1=CC[C@@H]2[C@@H](C1)c1c(O)cc(C3(C(=O)O)CCC3)cc1OC2(C)C [Compound 1.17, 1-((6aR,10aR)-1-hydroxy-6,6,9-trimethyl-6a,7,10,10a-tetrahydro-6H-benzo[c]chromen-3-yl)cyclobutanecarboxylic Acid]
Ki [1, 4]: > 10000 nM | Ki [2, 5]: > 10000 nM | Ki [3, 6]: > 10000 nM

CC1=CC[C@@H]2[C@@H](C1)c1c(O)cc([C@@H](C)C(=O)O)cc1OC2(C)C [Compound 1.13, (R)-2-((6aR,10aR)-1-hydroxy-6,6,9-trimethyl-6a,7,10,10a-tetrahydro-6H-benzo[c]chromen-3-yl)propanoic Acid]
Ki [1, 4]: > 10000 nM | Ki [2, 5]: > 10000 nM | Ki [3, 6]: > 10000 nM

CCOC(=O)C(C)(C)c1cc(O)c(-c2cc(Cl)cc(Cl)c2)c(O)c1 [Compound 4.8, Ethyl 2-(3′,5′-dichloro-2,6-dihydroxybiphenyl-4-yl)-2-methylpropanoate]
Ki [3, 6]: 20.9 nM

CCCCOC(=O)C(C)(C)c1cc(O)c2c(c1)OC(C)(C)[C@@H]1CCC(=O)C[C@@H]21 [Compound 3.4, Butyl-2-((6aR,10aR)-6a,7,8,9,10,10a-hexahydro-1-hydroxy-6,6-dimethyl-9-oxo-6H-benzo[c]chromen-3-yl)-2-methylpropanoate]
Ki [1, 4]: 2.2 nM | Ki [2, 5]: 7.2 nM | Ki [3, 6]: 6.2 nM

CCOC(=O)C(C)(C)c1cc(O)c(-c2cc(C)cc(C)c2)c(OC)c1 [Compound 4.5, Ethyl 2-(2-hydroxy-6-methoxy-3′,5′-dimethylbiphenyl-4-yl)-2-methylpropanoate]
Ki [1, 4]: 1000 nM | Ki [2, 5]: 108 nM | Ki [3, 6]: 375 nM

CC(C)(C(=O)O)c1cc(O)c2c(c1)OC(C)(C)[C@@H]1CCC(=O)C[C@@H]21 [Compound 3.3, 2-((6aR,10aR)-6a,7,8,9,10,10a-hexahydro-1-hydroxy-6,6-dimethyl-9-oxo-6H-benzo[c]chromen-3-yl)-2-methylpropanoic Acid]
Ki [1, 4]: > 10000 nM | Ki [2, 5]: > 10000 nM | Ki [3, 6]: > 10000 nM

CCOC(=O)C(C)(C)c1cc(OC)c(-c2cc(Cl)cc(Cl)c2)c(OC)c1 [Compound 4.6, Ethyl 2-(3′,5′-dichloro-2,6-dimethoxybiphenyl-4-yl)-2-methylpropanoate]
Ki [1, 4]: 1000 nM | Ki [2, 5]: 1000 nM | Ki [3, 6]: 1000 nM

CC1=CC[C@@H]2[C@@H](C1)c1c(O)cc(C(C)(C)CO)cc1OC2(C)C [Compound 1.32, (6aR,10 aR)-3-(1-hydroxy-2-methylpropan-2-yl)-6,6,9-trimethyl-6a,7,10,10a-tetrahydro-6H-benzo[c]chromen-1-ol]
Ki [1, 4]: 447 nM

CC(C)(C(=O)O)c1cc(O)c2c(c1)OC(C)(C)[C@@H]1CC=C(CO)C[C@@H]21 [Compound 2.1, 2-((6aR, 10aR)-6a,7,10,10a-tetrahydro-1-hydroxy-9-(hydroxymethyl)-6,6-dimethyl-6H-benzo[c]chromen-3-yl)-2-methylpropanoic Acid]
Ki [1, 4]: > 10000 nM | Ki [2, 5]: > 10000 nM | Ki [3, 6]: > 10000 nM

CC1(C)Oc2cc(CC(=O)O)cc(O)c2[C@@H]2CC(=O)CC[C@H]21 [Compound 3.1, 2-((6aR,10aR)-6a,7,8,9,10,10a-hexahydro-1-hydroxy-6,6-dimethyl-9-oxo-6H-benzo[c]chromen-3-yl)acetic acid]
Ki [1, 4]: > 10000 nM | Ki [2, 5]: > 10000 nM | Ki [3, 6]: > 10000 nM

CC1=CC[C@@H]2[C@@H](C1)c1c(O)cc(C3(C(=O)OCCCCN=[N+]=[N-])CCC3)cc1OC2(C)C [Compound 1.21, 4-azidobutyl 1-((6aR,10aR)-1-hydroxy-6,6,9-trimethyl-6a,7,10,10a-tetrahydro-6H-benzo[c]chromen-3-yl)cyclo Butanecarboxylate]
Ki [1, 4]: 0.9 nM | Ki [2, 5]: 1.9 nM | Ki [3, 6]: 2.7 nM

CCCCOC(=O)C(C)(C)c1cc(O)c2c(c1)OC(C)(C)[C@@H]1CC[C@@H](CO)C[C@H]21 [Compound 3.9, Butyl 2-((6aR,9R,10aS)-1-hydroxy-9-(hydroxymethyl)-6,6-dimethyl-6a,7,8,9,10,10a-hexahydro-6H-benzo[c]chromen-3-yl)-2-methylpropanoate]
Ki [1, 4]: 2.4 nM | Ki [2, 5]: 4.3 nM | Ki [3, 6]: 6.5 nM

CC1=CC[C@@H]2[C@@H](C1)c1c(O)cc(C(C)(C)C(=O)OCCCN=[N+]=[N-])cc1OC2(C)C [Compound 1.9, 3-azidopropyl-2-((6aR,10aR)-6a,7,10,10a-tetrahydro-1-hydroxy-6,6,9-trimethyl-6H-benzo[c]chromen-3-yl)-2-methylpropanoate]
Ki [1, 4]: 1 nM | Ki [2, 5]: 0.7 nM | Ki [3, 6]: 0.8 nM

CCCCCNC(=O)C(C)(C)c1cc(O)c2c(c1)OC(C)(C)[C@@H]1CC=C(C)C[C@@H]21 [Compound 1.31, 2-((6aR,10aR)-6a,7,10,10a-tetrahydro-1-hydroxy-6,6,9-trimethyl-6H-benzo[c]chromen-3-yl)-2-methyl-N-pentylpropanamide]
Ki [1, 4]: 6.3 nM | Ki [2, 5]: 9.2 nM | Ki [3, 6]: 2.8 nM

CCOC(=O)C(C)(C)c1cc(O)c(-c2cccc(C#N)c2)c(O)c1 [Compound 4.2, Ethyl 2-(3′-cyano-2,6-dihydroxybiphenyl-4-yl)-2-methylpropanoate]
Ki [1, 4]: 3660 nM | Ki [3, 6]: 94.8 nM

CC1=CC[C@H]2[C@@H](C1)c1c(O)cc(C(C)(C)C(=O)O)cc1OC2(C)C [Compound 1.1, 2-((6aS,10aR)-6a,7,10,10a-tetrahydro-1-hydroxy-6,6,9-trimethyl-6H-benzo[c]chromen-3-yl)-2-methylpropanoic Acid]
Ki [1]: > 10000 nM | Ki [2]: > 10000 nM | Ki [3]: > 10000 nM

CC(C)(C(=O)O)c1cc(O)c2c(c1)OC(C)(C)[C@@H]1CC[C@H](O)C[C@@H]21 [Compound 3.7, 2-((6aR,9S,10aR)-6a,7,8,9,10,10a-hexahydro-1,9-dihydroxy-6,6-dimethyl-6H-benzo[c]chromen-3-yl)-2-methylpropanoic Acid]
Ki [1, 4]: > 10000 nM | Ki [2, 5]: > 10000 nM | Ki [3, 6]: > 10000 nM

CCOC(=O)C(C)(C)c1cc(OC)c(-c2cccc(C#N)c2)c(OC)c1 [Compound 4.1, Ethyl 2-(3′-cyano-2,6-dimethoxybiphenyl-4-yl)-2-methylpropanoate]
Ki [1, 4]: > 1000 nM | Ki [2, 5]: > 1000 nM | Ki [3, 6]: > 1000 nM

CCCSC(=O)C(C)(C)c1cc(O)c2c(c1)OC(C)(C)[C@@H]1CC=C(C)C[C@@H]21 [Compound 1.30, S-propyl-2-((6aR,10aR)-6a,7,10,10a-tetrahydro-1-hydroxy-6,6,9-trimethyl-6H-benzo[c]chromen-3-yl)-2-methylpropanethioate]
Ki [1, 4]: 0.5 nM | Ki [3, 6]: 0.7 nM

CCOC(=O)C(C)(C)c1cc(O)c(-c2cc(Cl)cc(Cl)c2)c(OC)c1 [Compound 4.7, ethyl 2-(3′,5′-dichloro-2-hydroxy-6-methoxybiphenyl-4-yl)-2-methylpropanoate]
Ki [1, 4]: 1000 nM | Ki [3, 6]: 700 nM

CCCCCCC(C)(C)c1cc(O)c2c(c1)OC(C)(C)[C@@H]1CCOC(=O)C[C@@H]21 [Compound 3.11, (5 aR,11bR)-11-hydroxy-6,6-dimethyl-9-(2-methyloctan-2-yl)-4,5,5a,6-tetrahydro-1H-oxepino[4,5-c]chromen-2(11bH)-one]
Ki [1, 4]: 99 nM | Ki [2, 5]: 802 nM

CCCCC(=O)OCC(C)(C)c1cc(O)c2c(c1)OC(C)(C)[C@@H]1CC=C(C)C[C@@H]21 [Compound 1.33, 2-((6aR, 10aR)-6a,7,10,10a-tetrahydro-1-hydroxy-6,6,9-trimethyl-6H-benzo[c]chromen-3-yl)-2-methyl propylpentanoate]
Ki [1, 4]: 0.5 nM | Ki [3, 6]: 1 nM
